Source: US20250367283A1, “MEVALONATE PATHWAY INHIBITOR AS HIGHLY-EFFICIENT VACCINE ADJUVANT” (Tsinghua University, priority 2015, published 2025)
Like-named read-outs stand apart in the source and are kept apart here.

Legend:
[1] = test system: anti-OVA IgM and IgG antibodies; experiment: OVA evaluation system: adjuvant activity in antibody titer in mice; assay type: in vivo; conditions: for IgM and IgG antibody titers vs PBS or DMSO control / adjuvant effect among statin drugs: statins with OVA, soles injection; for IgM and IgG antibody titers vs PBS or DMSO control: Day 7 and Day 14
Procedure: OVA evaluation system was used to determine adjuvant activity in antibody titer.
Mice of C57B/6 strain were used. The mice in the experimental group were injected with the obtained mixture of each of the statins and OVA antigen through soles injection, with 20 μl for each mouse. The mice in the control group were injected with a 1:1 mixture of PBS or DMSO (10 μl) and 10 μl OVA antigen (PBS or DMSO is 10 μl, respectively, and the antigen is 10 μl) through soles injection, with 20 μl for each mouse. On Day 7 and Day 14 after immunization, blood was taken from the mice's orbits, with 100 μl was taken from each mouse. The obtained blood was left at 4° C. overnight, and centrifuged at 6000 rpm for 8 min. The supernatant serum was removed and the titers of anti-OVA IgM and IgG antibodies in the serum were determined.
Test of the OVA antibody titer: The OVA protein was diluted to a concentration of 2 μg/ml with a carbonate solution of pH 9.6, coated in a 96-well ELISA plate at 50 μl per well, and left at 4° C. overnight. The ELISA plate was washed five times with PBS containing 0.05% Tween 20, blocked with 1% BSA solution at 200 μl per well, and incubated at room temperature for 2 h. The ELISA plate was washed five times with PBST (Phosphate Buffered Saline with Tween), a 2-fold serial dilution of the mouse serum after immunized with OVA was added at 50 μl per well and incubated at room temperature for 2 h. After the ELISA plate was washed five times with PBST, HRP (horseradish peroxidase)-labeled goat-anti-mouse IgM or IgG antibody was added and incubated at room temperature for 45 min. The ELISA plate was washed five times with PBST, and a color developing solution of sodium citrate OPD (o-phenylenediamine) was added. After 10 min of color development in the dark, sulfuric acid was added to terminate the reaction. The reading was performed with ELIASA OD490. The maximum serum dilution factor, when the ratio of light absorptions of the experimental group to the control group was >2.0, was the titer of the anti-OVA antibody in the serum.
Each test compound was formulated at a concentration of 2 mg/ml and the concentration of OVA antigen was 2 mg/ml. Each compound was mixed with OVA at 1:1. Each C57B/6 mouse in the experimental group was injected with 100 μl of the mixture (containing 50 μl of the antigen and 50 μl of the compound) by intramuscular injection at the right thigh. On Day 7 and Day 14 after immunization, blood was taken from the mice's orbit, and 100 μl was taken for each mouse. The obtained blood was allowed to stand at 4° C. overnight, and centrifuged at 6000 rpm for 8 min. The supernatant serum was removed, and the titers of anti-OVA IgM and IgG antibodies in the serum were determined.
Method: each of the test compounds (the 10 bisphosphonates as described above) was mixed with the OVE antigen at 1:1, and the concentrations of bisphosphonic acid and OVA were both 10 mg/ml. Mice of C57B/6 strain were used. The mice in the experimental group were injected with the mixture of each of the test compounds and OVA antigen through soles injection, with 20 μl for each mouse, and wherein the amounts of OVA antigen and each of the test compounds were both 100 ug. The mice in the control group were injected with a 1:1 mixture of […] and 10 μl OVA antigen through sole injection. On Day 7 and Day 14 after immunization, blood was taken from the mice's orbits, and 100 μl was taken from each mouse.
The obtained blood was left at 4° C. overnight, and centrifuged at 6000 rpm for 8 min. The supernatant serum was removed, and the titers of anti-OVA IgM and IgG antibodies in the serum were determined.
Method: TH-Z144 and TH-Z145 were prepared at the concentration of 10 mg/ml, the concentration of OVA antigen was also 10 mg/ml, and the compound and the antigen were mixed at 1:1. Mice of C57B/6 strain were used.

[2] = test system: PvGGPPS (geranylgeranyl pyrophosphate synthase from Plasmodium); experiment: In vitro PvGGPPS enzymatic activity assay; assay type: biochemical; conditions: GPP and IPP substrates
Procedure: PvGGPPs with 6 consecutive His at the N-terminus was induced to express in vitro, collected, and purified by Ni column. In vitro PvGGPPs enzymatic activity assay was performed in a 96-well plate at 200 μl of solution per well. The buffer of the system was 25 mM HEPES, 2.5 mM MgCl2, pH 7.4. Using GPP and IPP as reaction substrates, a 360 nm continuous spectrophotometric detection was performed in a phosphate lyase system. ORIGIN 8.0 software was used to plot and fit.

[3] = test system: Plasmodium falciparum 3D7; experiment: Test of plasmodium activity (SYBR-GREEN1); assay type: cell-based; conditions: infected erythrocytes, 72 hours; read-out: Malaria (IC50/μM)
Procedure: Plasmodium falciparum 3D7 was cultured with […] medium mixed with 10% human O-type blood serum and 25 mM HEPES. The cultivation process was maintained in a carbon dioxide incubator under 5% carbon dioxide. In vitro drug testing experiments were performed on a 96-well plate. The test drug was dissolved in PBS and pre-diluted with complete medium. Infected erythrocytes were cultured in triplicate for 72 hours in 3-fold serial dilutions of drug. Then an equal amount of SYBR-GREEN1 was added to each well. The detection was then performed at 485 nm for excitation light and 538 nm for emitted light. […] ORIGIN 8.0 software was used to plot and fit.

[4] = biological target: humanized farnesyl pyrophosphate synthase (HsFPPS) (Homo sapiens (Human), UniProt P14324); experiment: In vitro HsFPPS enzyme activity assay; assay type: biochemical
Procedure: The measurement method is briefly described as follows: the expression of HsFPPS with 6 consecutive His at the N-terminus was induced in vitro, collected, and purified by Ni column. An in vitro HsFPPS enzyme activity assay was performed in a 96-well plate with 200 μl of solution per well. The buffer of the system was 25 mM HEPES, 2.5 mM MgCl2, pH 7.4. Using DMAPP and IPP as reaction substrates, the change of the UV value at a wavelength of 360 nm was monitored in real time in a phosphate lyase system. The ORIGIN 8.0 software was used to plot and fit. The IC50 values for the inhibition of FPPS by the TH-Z80 series of compounds were shown in the following table, in micromoles per liter (μM).
HsFPPs with 6 consecutive His at the N-terminus was induced to express in vitro, collected, and purified by Ni column. In vitro HsFPPs enzymatic activity assay was performed in a 96-well plate at 200 μl of solution per well. The buffer of the system was 25 mM HEPES, 2.5 mM MgCl2, pH 7.4. Using DMAPP and IPP as reaction substrates, the changes of UV at 360 nm were monitored in real-time in phosphate lyase system. ORIGIN 8.0 software was used to plot and fit.

MDA-MB-231 cells = experiment: MDA-MB-231 proliferation MTT test; assay type: cell-based, human; conditions: 72 hours
Procedure: • Drug dissolution: […] The prepared bisphosphonate stock solution was diluted with DMEM complete medium. The maximum concentration was 1 mM. The dilution was performed serially in a ratio of 1:3.2 with a total of 11 concentration gradients; a. MDA-MB-231 cells were digested the day before. Centrifugation was performed at 1000 rmp for 3 min. The cells were counted. The cells were seeded into a 96-well plate at 3000 cells/well in a volume of 100 μl per well and cultured for 14-16 h. It should be noted that the cell count should be accurate, and the amount of cells seeded per well should be consistent. The cell suspension can be gently shaken in the intermittence of plating, or a row of cells were plated and the cell suspension was pipetted gently with a pipette. The speed of pipetting into the 96-well plate with a pipette should not be too fast or too slow, in order to avoid uneven distribution of cells in the plate, affecting the experiments; the wells at the fringe of the 96-well plate will evaporate slightly faster and the concentration of the solution will change slightly faster. Under normal situation, the central 60 wells should be selected for stimulation. Also, the pipetted liquid should be prevented from creating bubbles. b. After the cells had adhered, the liquid in the 96-well plate was pipetted out and discarded. […] c. 72 hours after the action of drug, the prepared MTT solution (immediately before use, a certain amount of MTT powder was weighed and dissolved in PBS at 5 mg/ml, under dark, filter with 0.22 filter membrane) was added directly to each well with 20 μl per well and continued to culture for 4 hours; d. The filter paper (which can be replaced by an absorbent paper) was laid, and the plate was inverted gently (be careful to prevent the crystal in the well from dropping). After the liquid in the wells was removed, 150 μl of DMSO was added to dissolve the crystals, and the mixture was shaken thoroughly with a shaker for a period of time just to dissolve the crystals. The absorbance (OD value) of each well was measured at 570 nm with ELIASA. The mean value of blank control was calculated as OD Blank. OD value for each well=OD measured-OD Blank. ODNT mean value was calculated. […] Mean and standard error were then calculated. The mean and standard error of each group of drug concentration (uM) and corresponding drug inhibition rate were fitted by Graph Prism software to obtain the IC50 of the drug.

[5] = Example 15 table, read-out: HsFPPS (IC50/μM)
[6] = TH-Z80 series, DMAPP and IPP substrates, pH 7.4, read-out: IC50 for inhibition of FPPS
[7] = o-aminopyridine bisphosphonic acid compounds, read-out: IC50 (inhibition of FPPS)

Sequence of humanized farnesyl pyrophosphate synthase (HsFPPS) (P14324 whole entry, looked up): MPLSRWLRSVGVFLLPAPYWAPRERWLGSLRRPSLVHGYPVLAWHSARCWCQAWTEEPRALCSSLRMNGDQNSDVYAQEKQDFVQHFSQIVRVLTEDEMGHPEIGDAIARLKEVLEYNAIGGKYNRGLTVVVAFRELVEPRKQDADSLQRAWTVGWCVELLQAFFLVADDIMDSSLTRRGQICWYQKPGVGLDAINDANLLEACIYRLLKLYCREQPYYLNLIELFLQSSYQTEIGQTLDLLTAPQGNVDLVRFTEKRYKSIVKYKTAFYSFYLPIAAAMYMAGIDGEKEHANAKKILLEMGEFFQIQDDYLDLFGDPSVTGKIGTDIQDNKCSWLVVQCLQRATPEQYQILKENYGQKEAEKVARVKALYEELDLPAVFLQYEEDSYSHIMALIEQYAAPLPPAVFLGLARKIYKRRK

## CC(=C\C(=O)O)/C=C(\C)C[C@H](C)CCCC[C@H]1OC(=O)[C@@H]1CO [Hymeglusin, 11-[3R-(hydroxymethyl)-4-oxo-2R-oxetanyl]-3,5,7R-trimethyl-2E,4E-undecadienoic acid, reference compound]
[1]; 100 μg, intramuscular, fourteen days after immunization
  IgG antibody titer vs PBS control: significantly higher titers

## O=P(O)(O)C(O)(Cn1cnc2cc(OCl)ccc21)P(=O)(O)O [II-7]
[2]
  IC50: 0.82 µM
[3]
  IC50: 0.69 µM
[4]; [5]
  IC50: 0.16 µM

## O=P([O-])([O-])C(CCCc1cccc(Oc2ccccc2)c1)S(=O)(=O)[O-].[K+].[K+].[K+] (stereo not shown) [TH-Z66, reference compound]
[1]; 7 days after immunization
  IgG antibody titer vs control group: lower than those in mice in the control group
[1]; SQS inhibitor
  adjuvant effect: does not have an adjuvant effect
[1]; SQS inhibitor 100 μg with OVA, sole
  IgG and IgM antibody titers vs PBS control: did not differ significantly

## COc1ccc2c(c1)ncn2CC(O)(P(=O)(O)O)P(=O)(O)O [TH-Z79]
[2]
  IC50: 0.61 µM
[3]
  IC50: 0.96 µM
MDA-MB-231 cells
  IC50: 50900 nM
[4]; [5]
  IC50: 0.1 to 0.3 µM
[4]; [6]
  IC50: 0.1 to 0.3 µM

## CCCCCCOc1ccn2c(CC(O)(P(=O)(O)O)P(=O)(O)O)cnc2c1 [TH-Z97, (1-hydroxy-2-(7-n-hexyloxyimidazo[1,2-a]pyridin-3-yl)ethane-1,1-diyl)bisphosphonic acid]
[1]; Day 7 and Day 14, OVA
  IgG antibody titer vs PBS control: significantly higher titers
[4]
  IC50: 0.06 µM

## O=P(O)(O)C(Nc1cc(OCc2ccccc2)ccn1)P(=O)(O)O [TH-Z106]
[4]; [7]
  IC50: 0.108 µM

## O=P(O)(O)C(Nc1cc(-n2cc3c(n2)CCCC3)ccn1)P(=O)(O)O [TH-Z108]
[4]; [7]
  IC50: 0.112 µM

## NC(=O)c1cc(COc2ccnc(NC(P(=O)(O)O)P(=O)(O)O)c2)ccn1 [TH-Z109]
[4]; [7]
  IC50: 0.643 µM

## CCOc1ccc2c(c1)ncn2CC(O)(P(=O)(O)O)P(=O)(O)O [TH-Z148]
[2]
  IC50: 0.56 µM
[3]
  IC50: 1.86 µM
MDA-MB-231 cells
  IC50: 7300 nM
[4]; [5]
  IC50: 0.068 µM
[4]; [6]
  IC50: 0.068 µM

## CCCOc1ccc2c(c1)ncn2CC(O)(P(=O)(O)O)P(=O)(O)O [TH-Z149]
[2]
  IC50: 0.47 µM
[3]
  IC50: 0.92 µM
MDA-MB-231 cells
  IC50: 36100 nM
[4]; [5]
  IC50: 0.27 µM
[4]; [6]
  IC50: 0.27 µM

## CCCCOc1ccc2c(c1)ncn2CC(O)(P(=O)(O)O)P(=O)(O)O [TH-Z150]
[2]
  IC50: 0.28 µM
[3]
  IC50: 0.78 µM
MDA-MB-231 cells
  IC50: 128000 nM
[4]; [5]
  IC50: 0.14 µM
[4]; [6]
  IC50: 0.14 µM

## CCCCCCCCCCCCOc1ccc2c(c1)ncn2CC(O)(P(=O)(O)O)P(=O)(O)O [TH-Z154]
[2]
  IC50: 5.16 µM
[3]
  IC50: 0.75 µM
[4]; [5]
  IC50: > 5 µM
[4]; [6]
  IC50: > 5 µM

## CC(C)n1c(/C=C/C(O)CC(O)CC(=O)O)c(-c2ccc(F)cc2)c2ccccc21 (stereo not shown) [fluvastatin, reference compound]
[1]
  IgM and IgG antibody titers vs PBS or DMSO control: significantly higher titers

## CC[C@H](C)C(=O)O[C@H]1C[C@@H](C)C=C2C=C[C@H](C)[C@H](CC[C@@H]3C[C@@H](O)CC(=O)O3)[C@H]21 [lovastatin, reference compound]
[1]
  adjuvant effect among statin drugs: most significant adjuvant effects
  IgM and IgG antibody titers vs PBS or DMSO control: significantly higher titers

## CC[C@H](C)C(=O)O[C@H]1CCC=C2C=C[C@H](C)[C@H](CC[C@@H]3C[C@@H](O)CC(=O)O3)[C@H]21 [mevastatin, reference compound]
[1]
  adjuvant effect among statin drugs: most significant adjuvant effects
  IgM and IgG antibody titers vs PBS or DMSO control: significantly higher titers

## O=C(O)C[C@H](O)C[C@H](O)/C=C/c1c(C2CC2)nc2ccccc2c1-c1ccc(F)cc1 [pitavastatin, reference compound]
[1]
  IgM and IgG antibody titers vs PBS or DMSO control: significantly higher titers

## CC(C)c1nc(N(C)S(C)(=O)=O)nc(-c2ccc(F)cc2)c1/C=C/[C@@H](O)C[C@@H](O)CC(=O)O [rosuvastatin, reference compound]
[1]
  IgM and IgG antibody titers vs PBS or DMSO control: significantly higher titers
